Assay results taken from patent publication US11667675B2, “MASP inhibitory compounds and uses thereof” (Bayer Aktiengesellschaft, priority 2019, dated 2023).

Tests used:
[1] = molecular target: T1, human MASP1 (Homo sapiens, UniProt P48740); assay: Biochemical human MASP1 assay (FRET substrate); details: average IC50
T1 construct: Ig-kappa secretion signal (N, cleaved yes); made in house; host or cells: HEK293 (ATCC No. CRL-1573)
T1 sequence (P48740 297-448): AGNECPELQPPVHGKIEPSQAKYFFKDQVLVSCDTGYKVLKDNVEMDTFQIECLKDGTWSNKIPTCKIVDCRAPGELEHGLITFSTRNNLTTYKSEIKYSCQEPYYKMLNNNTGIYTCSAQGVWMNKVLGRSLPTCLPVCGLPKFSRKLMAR
T1 sequence (P48740 449-699): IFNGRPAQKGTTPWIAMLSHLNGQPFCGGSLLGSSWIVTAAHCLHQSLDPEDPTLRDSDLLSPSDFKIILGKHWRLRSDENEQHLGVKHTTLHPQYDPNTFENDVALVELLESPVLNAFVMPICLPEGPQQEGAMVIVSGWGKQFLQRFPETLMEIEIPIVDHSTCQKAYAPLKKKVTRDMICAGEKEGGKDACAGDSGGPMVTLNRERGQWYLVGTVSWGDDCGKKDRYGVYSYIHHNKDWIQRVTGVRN
Excerpt: 2.1 Recombinant Expression and Protein Production of Recombinant Human MASP1 and MASP2 Active Proteases.
The MASP1 or MASP2 expression vectors were transfected into the HEK293 (ATCC No. CRL-1573) cell line using Lipofectamine LTX® Reagent (Thermo-Fischer), as described by the manufacturer. […] The MASP1 and MASP2 proteins were purified from the conditioned media by affinity chromatography on Ni-NTA Superflow resin (Qiagen) as described by the manufacturer.
2.2 Biochemical Human MASP1 Assay
Recombinant human MASP1 enzyme produced in the HEK 293 cells was diluted in the reaction buffer (50 mM HEPES pH 8,0; 100 mM NaCl; 0.01% CHAPS; 0.5 mM Gluthathione) to the concentration of 20 nM and 25 μl was transferred into each single well of 384-well white microtiter plate (Greiner Bio One 781075). 1 μl of the inhibitor compound solution (dissolved in DMSO, at the corresponding concentration) or pure DMSO as a control was added to the same wells. […] The microtiter plate was incubated for 60-120 min at the temperature of 32 C. The increase of fluorescence intensity was measured in appropriate fluorescence plate reader (e.g. TECAN Ultra) using excitation wavelength of 320 nm and emission wavelength of 420 nm. IC50 values were calculated from percentage of inhibition of human MASP1 activity as a function of test compound concentration.

[2] = system: Human C3-[…]; assay: C3 deposition assay, human serum on mannan-coated plates; format: biochemical; details: average IC50, read-out: Human C3-DEPOSITION SERUM IC50
Experimental: (§1) 3. C3 Deposition Assay (Human, Rat, Mouse, Dog, Mini-Pig)
(§2) The C3 deposition assay was conducted essentially as described (reference). Multi well plates (Greiner-Nunc 384 Maxi Sorp #464718) were coated over night with Mannan from Saccharomyces cerevisiae (Sigma M7504, 10 μg/mL in 0.05 M carbonate-bicarbonate buffer, pH 9.6) at 4° C. Wells were washed three times with TBS and subsequently incubated for 2 hours with 50 μL of 1% bovine serum albumin (BSA) in Tris-buffered saline (TBS) at 37° C. in order to block non-specific binding. After this step and each of the following incubation steps wells were washed three times with C3 wash buffer (TBS; 0.05% Tween 20; 5 mM CaCl2). […] When appropriately developed the color reaction was stopped by addition of 25 μL of stop solution (Sigma S5814) and quantified on a photometer by measuring absorption at a wavelength of 450 nm. Antibodies were diluted in C3 wash buffer supplemented with 0.5% BSA.

[3] = system: rat C3-[…]; assay: C3 deposition assay, rat serum on mannan-coated plates; format: biochemical; details: average IC50
Experimental: as §1, §2

[4] = molecular target: T2, rat MASP2 (Rattus norvegicus, UniProt Q9JJS8); assay: Biochemical rat MASP2 assay (FRET substrate); details: average IC50; recombinant rat MASP2, FRET substrate
T2 construct: Ig-kappa secretion signal (N, cleaved yes); made in house; host or cells: HEK293 (ATCC No. CRL-1573)
Excerpt: (§3) 4. Biochemical Rat MASP-1 and MASP-2 Assay
(§4) 4.1 Recombinant Expression and Protein Production of Recombinant Human and Rat MASP1 and MASP2 Active Proteases.
(§5) The MASP1 or MASP2 expression vectors were transfected into the HEK293 (ATCC No. CRL-1573) cell line using Lipofectamine LTX® Reagent (Thermo-Fischer), as described by the manufacturer. The mature form of the recombinant rat MASP1 and MASP2 proteases were secreted into the culture medium. The MASP1 and MASP2 proteins were purified from the conditioned media by affinity chromatography on Ni-NTA Superflow resin (Qiagen) as described by the manufacturer.
4.3 Biochemical Rat MASP2 Assay.
Recombinant rat MASP2 enzyme produced in the HEK 293 cells was diluted in the reaction buffer (50 mM HEPES pH 8,0; 100 mM NaCl; 0.01% CHAPS; 0.5 mM Gluthathione) to the concentration of 20 nM and 25 μl was transferred into each single well of 384-well white microtiter plate (Greiner Bio One 781075). 1 μl of the inhibitor compound solution (dissolved in DMSO, at the corresponding concentration) or pure DMSO as a control was added to the same wells. The enzymatic reaction was initiated by addition of 25 μl of 30 μM solution of the FRET substrate Abz-IEGRTSED-(Lys)Dnp-NH2 (SEQ ID NO: 9); (ABZ—2-aminobenzoyl; DNP_2,4-dinitrophenyl; custom synthesis by Jerini Peptide Technologies, Berlin) in the reaction buffer. The microtiter plate was incubated for 60-120 min at the temperature of 32 C. The increase of fluorescence intensity was measured in appropriate fluorescence plate reader (e.g. TECAN Ultra) using excitation wavelength of 320 nm and emission wavelength of 420 nm. IC50 values were calculated from percentage of inhibition of rat […] activity as a function of test compound concentration.

[5] = molecular target: T3, rat MASP1 (Rattus norvegicus, UniProt Q8CHN8); assay: Biochemical rat MASP1 assay (FRET substrate); details: average IC50; recombinant rat MASP1, FRET substrate
T3 construct: Ig-kappa secretion signal (N, cleaved yes); made in house; host or cells: HEK293 (ATCC No. CRL-1573)
T3 sequence (Q8CHN8 302-453 limits assumed): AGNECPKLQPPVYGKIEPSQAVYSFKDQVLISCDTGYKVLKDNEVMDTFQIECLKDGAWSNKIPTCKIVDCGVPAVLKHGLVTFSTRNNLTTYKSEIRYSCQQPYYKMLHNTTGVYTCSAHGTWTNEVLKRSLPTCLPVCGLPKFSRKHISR
T3 sequence (Q8CHN8 454-704 limits assumed): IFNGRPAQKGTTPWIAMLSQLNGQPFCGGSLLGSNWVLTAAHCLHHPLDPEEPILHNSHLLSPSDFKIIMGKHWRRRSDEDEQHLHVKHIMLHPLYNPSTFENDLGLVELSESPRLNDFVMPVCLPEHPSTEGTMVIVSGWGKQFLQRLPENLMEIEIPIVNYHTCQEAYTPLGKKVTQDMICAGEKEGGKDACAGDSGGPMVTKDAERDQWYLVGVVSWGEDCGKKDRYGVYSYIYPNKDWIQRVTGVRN
Excerpt: as §3, §4
A truncated cDNA sequence of rat MASP1 encoding the fragment corresponding to the amino acids 302-704 with an C-terminal His Tag and N-terminal Ig-kappa secretion signal (SEQ ID No: 4) was subcloned into the mammalian expression vector pcDNA3.1 (Invitrogen).
as §5
4.2 Biochemical Rat MASP1 Assay.
Recombinant rat MASP1 enzyme produced in the HEK 293 cells was diluted in the reaction buffer (50 mM HEPES pH 8,0; 100 mM NaCl; 0.01% CHAPS; 0.5 mM Gluthathione) to the concentration of 4 nM and 25 μl was transferred into each single well of 384-well white microtiter plate (Greiner Bio One 781075). 1 μl of the inhibitor compound solution (dissolved in DMSO, at the corresponding concentration) or pure DMSO as a control was added to the same wells. The enzymatic reaction was initiated by addition of 25 μl of 40 μM solution of the FRET substrate Dabcyl-[…]-Glu(Edans)-NH2 (SEQ ID NO: 8); (Dabcyl—4-((4-(dimethylamino)phenyl)azo)benzoic acid; Edans—5-[(2-Aminoethyl) amino]naphthalene-1-sulfonyl; custom synthesis by Jerini Peptide Technologies, Berlin) in the reaction buffer. The microtiter plate was incubated for 60-120 min at the temperature of 32 C. The increase of fluorescence intensity was measured in appropriate fluorescence plate reader (e.g. TECAN Ultra) using excitation wavelength of 340 nm and emission wavelength of 490 nm. IC50 values were calculated from percentage of inhibition of rat […] activity as a function of test compound concentration.

T2 sequence (Q9JJS8 296-443): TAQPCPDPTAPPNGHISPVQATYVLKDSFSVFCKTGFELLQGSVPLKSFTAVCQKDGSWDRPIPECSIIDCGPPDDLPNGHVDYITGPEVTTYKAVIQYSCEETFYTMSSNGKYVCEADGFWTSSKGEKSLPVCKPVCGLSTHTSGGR
T2 sequence (Q9JJS8 444-685): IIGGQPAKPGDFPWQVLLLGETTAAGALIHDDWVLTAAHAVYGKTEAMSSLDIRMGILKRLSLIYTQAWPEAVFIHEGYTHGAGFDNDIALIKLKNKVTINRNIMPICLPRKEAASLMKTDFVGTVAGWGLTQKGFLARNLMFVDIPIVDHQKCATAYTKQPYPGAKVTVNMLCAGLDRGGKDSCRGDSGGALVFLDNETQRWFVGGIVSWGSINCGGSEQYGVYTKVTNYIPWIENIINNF

SMILES: CC[C@H](C)[C@H](NC(=O)[C@H](C)N)C(=O)N[C@H]1CSSC(C)(C)[C@@H](C(=O)N[C@H](C(=O)N2CCC[C@H]2C(=O)N[C@@H](CC(=O)O)C(N)=O)[C@@H](C)CC)NC(=O)[C@H]([C@@H](C)CC)NC(=O)[C@@H]2C[C@@H]3CCCC[C@@H]3N2C(=O)[C@@H]2CCCN2C(=O)[C@H](CC(C)C)NC(=O)[C@H](CO)NC(=O)[C@H](CCCNC(=N)N)NC(=O)[C@H](CO)NC1=O [Example 75, AIC+SRSLP-(Oic)-I-(Pen)+IPD-NH2]
- IC50 [1]: 0.00223 µM
- IC50 [2]: 0.032 µM
- IC50 [3]: 0.183 µM
- IC50 [4]: 0.0349 µM
- IC50 [5]: 0.035 µM
